The values that follow are results of earlier work, collected in patent publication US20180271812A1, “CALCIUM BASED CLINICAL MATERIAL WITH ANTIMICROBIAL PROPERTIES AND METHOD OF FORMING FOR PREVENTION OR TREATMENT OF INFECTION” (Biocomposites Limited, priority 2017, published 2018).

For one data set, the system named is Staphylococcus aureus. Conditions: breakpoint, EUCAST clinical breakpoints v7.0 (Jan 2017).
For data set [1] the following is noted: background statement, no test described.
A further data set concerns Pseudomonas aeruginosa. Conditions: breakpoint.
Setting [2] is: American Society for Microbiology Kirby-Bauer disk diffusion susceptibility test protocol.
[3] abbreviates: EUCAST clinical breakpoints v7.0 (Jan 2017).

Read-outs that look alike come from different tables or passages of the source. Some results are limits rather than exact numbers.

Take `NCC[C@H](O)C(=O)N[C@@H]1C[C@H](N)[C@@H](O[C@H]2O[C@H](CN)[C@@H](O)[C@H](O)[C@H]2O)[C@H](O)[C@H]1O[C@H]1O[C@H](CO)[C@@H](O)[C@H](N)[C@H]1O` [Amikacin]: in the data set with Staphylococcus aureus, the “ZOI against Staphylococcus aureus, Resistant” value is below 16 mm and the “ZOI against Staphylococcus aureus, Susceptible” value was at least 18 mm.

For `C/C=C/C=C/C(=O)O` [Sorbic acid], the pH in data set [1] is given as 4.76.

With `CN(C)c1cc(NC(=O)CNC(C)(C)C)c(O)c2c1C[C@H]1C[C@H]3[C@H](N(C)C)C(O)=C(C(N)=O)C(=O)[C@@]3(O)C(O)=C1C2=O` [Tigecycline], in the data set on Staphylococcus aureus, the “ZOI against Staphylococcus aureus, Resistant” value is reported as below 18 mm and the “ZOI against Staphylococcus aureus, Susceptible” value is recorded as at least 18 mm.

Take `NC[C@H]1O[C@H](O[C@H]2[C@H](O)[C@@H](O[C@H]3O[C@H](CO)[C@@H](O)[C@H](N)[C@H]3O)[C@H](N)C[C@@H]2N)[C@H](N)C[C@@H]1O` [Tobramycin]: in the data set on Pseudomonas aeruginosa (setting [2]), the “ZOI against Pseudomonas aeruginosa, Resistant” value is at most 12 mm and the “ZOI against Pseudomonas aeruginosa, Susceptible” value is at least 15 mm. In addition, in the data set on Pseudomonas aeruginosa (setting [3]), the “ZOI against Pseudomonas aeruginosa, Resistant” value was below 16 mm and the “ZOI against Pseudomonas aeruginosa, Susceptible” value is recorded as at least 16 mm. In addition, in the data set on Staphylococcus aureus, the “ZOI against Staphylococcus aureus, Resistant” value is reported as below 18 mm and the “ZOI against Staphylococcus aureus, Susceptible” value is listed as at least 18 mm.

For the compound Gentamicin, in the data set on Pseudomonas aeruginosa (setting [2]), the “ZOI against Pseudomonas aeruginosa, Resistant” value is listed as at most 12 mm and the “ZOI against Pseudomonas aeruginosa, Susceptible” value was at least 15 mm. Moreover, in the data set on Pseudomonas aeruginosa (setting [3]), the “ZOI against Pseudomonas aeruginosa, Resistant” value is given as below 15 mm and the “ZOI against Pseudomonas aeruginosa, Susceptible” value is recorded as at least 15 mm. In the data set with Staphylococcus aureus, the “ZOI against Staphylococcus aureus, Resistant” value is on record as below 18 mm and the “ZOI against Staphylococcus aureus, Susceptible” value was at least 18 mm.
